This is an account of results in ChEMBL document CHEMBL4130394, “Novel 6-substituted benzoyl and non-benzoyl straight chain pyrrolo[2,3-d]pyrimidines as potential antitumor agents with multitargeted inhibition of TS, GARFTase and AICARFTase” (Eur J Med Chem, 2017).

For experiment [1], the system named is KB. Nature of the experiment: Cell cycle arrest in human KB cells assessed as accumulation at S phase at 5 uM after 96 hrs by propidium iodide staining based flow cytometry (reference value: 35.66%). Format: functional. In general terms: In flow cytometry, cells or beads pass a laser one at a time.
Experiment [2] has as its system KB. In words: Cell cycle arrest in human KB cells assessed as accumulation at G1 phase at 5 uM after 96 hrs by propidium iodide staining based flow cytometry (reference value: 54.75%). Format: functional.
In experiment [3] the test system is KB. Nature of the experiment: Cell cycle arrest in human KB cells assessed as accumulation at G2 phase at 5 uM after 96 hrs by propidium iodide staining based flow cytometry (reference value: 9.59%). Format: functional.
Experiment [4] deals with T1, Thymidylate synthase/GAR transformylase/AICAR transformylase (Homo sapiens, UniProt P04818+P31939+P22102). In words: Inhibition of TS/AICARFTase/GARFTase in human KB cells assessed as reduction in cell proliferation in folate free medium after 72 hrs in presence of leucovorin by MTT assay. Format: cell-based.
Experiment [5] deals with MCF7. In words: Antiproliferative activity against human MCF7 cells in folate free medium after 72 hrs in presence of leucovorin by MTT assay. It counts as functional, cell-based. As to conditions: MCF7, 72 h.
Experiment [6] deals with SW-620. In words: Antiproliferative activity against human SW620 cells in folate free medium after 72 hrs in presence of leucovorin by MTT assay. Format: functional, cell-based. As to conditions: SW-620, 72 h. (Formazan colour is commonly taken as a measure of viable cells.)
Experiment [7] concerns KB. In words: Cell cycle arrest in human KB cells assessed as accumulation at S phase at 1 uM after 96 hrs by propidium iodide staining based flow cytometry (reference value: 35.66%). It counts as functional.
For experiment [8], the system named is KB. In words: Induction of apoptosis in human KB cells assessed as necrotic cells at 1 uM after 48 hrs by Annexin V-FITC/propidium iodide staining based flow cytometry (reference value: 3%). Format: functional.
For experiment [9], the target named is T2, Thymidylate synthase/AICAR transformylase (Homo sapiens) (UniProt P04818+P31939). Nature of the experiment: Inhibition of TS/AICARFTase in human KB cells assessed as reduction in cell proliferation at 1 to 10 nM after 72 hrs in presence of excess of thymidine and AICA by MTT assay. It counts as cell-based.
In experiment [10] the test system is KB. In words: Cell cycle arrest in human KB cells assessed as accumulation at G2 phase at 1 uM after 96 hrs by propidium iodide staining based flow cytometry (reference value: 9.59%). It counts as functional.
In experiment [11] the target is T3, Bifunctional purine biosynthesis protein ATIC (Homo sapiens, UniProt P31939). Nature of the experiment: Inhibition of AICARFTase in human KB cells assessed as reduction in cell proliferation at 1 to 10 nM after 72 hrs in presence of excess of AICA by MTT assay. Format: cell-based.
Target sequence in this assay (P31939 whole entry, looked up): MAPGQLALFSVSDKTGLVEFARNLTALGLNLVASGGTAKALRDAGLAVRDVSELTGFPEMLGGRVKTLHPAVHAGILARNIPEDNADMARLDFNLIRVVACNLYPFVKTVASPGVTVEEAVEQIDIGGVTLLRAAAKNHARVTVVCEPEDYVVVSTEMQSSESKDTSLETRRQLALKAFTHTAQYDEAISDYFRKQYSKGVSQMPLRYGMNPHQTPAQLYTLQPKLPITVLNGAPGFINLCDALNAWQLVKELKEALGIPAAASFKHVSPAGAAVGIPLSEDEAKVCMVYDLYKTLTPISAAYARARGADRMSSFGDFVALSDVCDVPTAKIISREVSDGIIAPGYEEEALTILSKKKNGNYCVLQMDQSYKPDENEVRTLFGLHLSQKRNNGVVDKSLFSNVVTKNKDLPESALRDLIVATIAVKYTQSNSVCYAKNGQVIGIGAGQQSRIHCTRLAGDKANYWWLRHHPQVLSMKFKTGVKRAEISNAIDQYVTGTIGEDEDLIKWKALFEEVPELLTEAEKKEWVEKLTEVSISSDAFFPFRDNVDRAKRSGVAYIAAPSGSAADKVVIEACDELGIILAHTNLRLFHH
The test system of experiment [12] is KB. Nature of the experiment: Cell cycle arrest in human KB cells assessed as accumulation at G1 phase at 1 uM after 96 hrs by propidium iodide staining based flow cytometry (reference value: 54.75%). It counts as functional.
Experiment [13] has as its system KB. Nature of the experiment: Inhibition of colony formation in human KB cells at 100 nM after 10 to 14 days by methylene blue staining based assay relative to control. It counts as functional.
Experiment [14] has as its system KB. Nature of the experiment: Induction of apoptosis in human KB cells assessed as live cells at 1 uM after 48 hrs by Annexin V-FITC/propidium iodide staining based flow cytometry (reference value: 74.6%). Format: functional.
For experiment [15], the system named is KB. Nature of the experiment: Induction of apoptosis in human KB cells assessed as late apoptotic cells at 1 uM after 48 hrs by Annexin V-FITC/propidium iodide staining based flow cytometry (reference value: 5.5%). Format: functional.
In experiment [16] the test system is KB. Nature of the experiment: Induction of apoptosis in human KB cells assessed as early apoptotic cells at 1 uM after 48 hrs by Annexin V-FITC/propidium iodide staining based flow cytometry (reference value: 16.9%). Format: functional.
Experiment [17] concerns KB. In words: Induction of apoptosis in human KB cells assessed as live cells at 10 uM after 48 hrs by Annexin V-FITC/propidium iodide staining based flow cytometry (reference value: 74.6%). Format: functional.
Experiment [18] relates to KB. Nature of the experiment: Cell cycle arrest in human KB cells assessed as accumulation at S phase at 10 uM after 96 hrs by propidium iodide staining based flow cytometry (reference value: 35.66%). It counts as functional.
Experiment [19] relates to KB. Nature of the experiment: Cell cycle arrest in human KB cells assessed as accumulation at G1 phase at 10 uM after 96 hrs by propidium iodide staining based flow cytometry (reference value: 54.75%). It counts as functional.
Experiment [20] has as its system KB. Nature of the experiment: Induction of apoptosis in human KB cells assessed as late apoptotic cells at 10 uM after 48 hrs by Annexin V-FITC/propidium iodide staining based flow cytometry (reference value: 5.5%). Format: functional.
Experiment [21] has as its system KB. Nature of the experiment: Cell cycle arrest in human KB cells assessed as accumulation at G2 phase at 10 uM after 96 hrs by propidium iodide staining based flow cytometry (reference value: 9.59%). Format: functional.
Experiment [22] has as its system KB. In words: Induction of apoptosis in human KB cells assessed as necrotic cells at 10 uM after 48 hrs by Annexin V-FITC/propidium iodide staining based flow cytometry (reference value: 3%). It counts as functional.
Experiment [23] relates to KB. Nature of the experiment: Induction of apoptosis in human KB cells assessed as early apoptotic cells at 10 uM after 48 hrs by Annexin V-FITC/propidium iodide staining based flow cytometry (reference value: 16.9%). Format: functional.
Experiment [24] addresses T2, Thymidylate synthase/AICAR transformylase (Homo sapiens). In words: Inhibition of TS/AICARFTase in human KB cells assessed as reduction in cell proliferation up to 1 uM after 72 hrs in presence of excess of thymidine and AICA by MTT assay. Format: cell-based.
The target of experiment [25] is Thymidylate synthase (Homo sapiens) (UniProt P04818). Nature of the experiment: Inhibition of thymidylate synthase in human KB cells assessed as reduction in cell proliferation up to 1 uM after 72 hrs in presence of excess of thymidine by MTT assay. Format: cell-based.
For experiment [26], the target named is GAR transformylase/AICAR transformylase (Homo sapiens) (UniProt P31939+P22102). Nature of the experiment: Inhibition of AICARFTase/GARFTase in human KB cells assessed as reduction in cell proliferation up to 1 uM after 72 hrs in presence of excess of adenosine by MTT assay. It counts as cell-based.
Experiment [27] deals with T1, Thymidylate synthase/GAR transformylase/AICAR transformylase. In words: Inhibition of TS/AICARFTase/GARFTase in human KB cells assessed as reduction in cell proliferation up to 1 uM after 72 hrs in presence of excess of thymidine and adenosine by MTT assay. It counts as cell-based.
Experiment [28] addresses T3, Bifunctional purine biosynthesis protein ATIC. In words: Inhibition of AICARFTase in human KB cells assessed as reduction in cell proliferation up to 1 uM after 72 hrs in presence of excess of AICA by MTT assay. Format: cell-based.
Target sequence in this assay (P31939 whole entry, looked up): as above
Experiment [29] concerns KB. In words: Potency index, ratio of pemetrexed IC50 to compound IC50 for human KB cells. It counts as functional.
The test system of experiment [30] is KB. Nature of the experiment: Potency index, ratio of methotrexate IC50 to compound IC50 for human KB cells. It counts as functional.
The target of experiment [31] is T3, Bifunctional purine biosynthesis protein ATIC. In words: Inhibition of recombinant human AICARFTase using AICAR as substrate incubated at 37 degC for 30 mins measured after overnight incubation at 4 degC.
Target sequence in this assay (P31939 whole entry): as the sequence (P31939 whole entry, looked up) above

Molecules are shown by their SMILES. The source made the active and inactive calls. No cut-off for these calls is given here.

T2 sequence (P04818 whole entry, looked up): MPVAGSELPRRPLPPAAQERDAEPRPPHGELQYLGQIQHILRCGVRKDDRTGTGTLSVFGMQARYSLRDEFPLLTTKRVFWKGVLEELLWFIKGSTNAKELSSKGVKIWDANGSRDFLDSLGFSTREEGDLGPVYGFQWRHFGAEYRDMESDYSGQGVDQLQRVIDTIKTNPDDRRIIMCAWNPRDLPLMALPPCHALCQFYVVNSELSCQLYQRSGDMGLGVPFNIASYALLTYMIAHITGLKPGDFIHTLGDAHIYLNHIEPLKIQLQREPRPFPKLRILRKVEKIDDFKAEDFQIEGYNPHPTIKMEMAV
T2 sequence (P31939 whole entry, looked up): as the sequence (P31939 whole entry, looked up) above
GAR transformylase/AICAR transformylase (Homo sapiens), sequence (P22102 whole entry, looked up): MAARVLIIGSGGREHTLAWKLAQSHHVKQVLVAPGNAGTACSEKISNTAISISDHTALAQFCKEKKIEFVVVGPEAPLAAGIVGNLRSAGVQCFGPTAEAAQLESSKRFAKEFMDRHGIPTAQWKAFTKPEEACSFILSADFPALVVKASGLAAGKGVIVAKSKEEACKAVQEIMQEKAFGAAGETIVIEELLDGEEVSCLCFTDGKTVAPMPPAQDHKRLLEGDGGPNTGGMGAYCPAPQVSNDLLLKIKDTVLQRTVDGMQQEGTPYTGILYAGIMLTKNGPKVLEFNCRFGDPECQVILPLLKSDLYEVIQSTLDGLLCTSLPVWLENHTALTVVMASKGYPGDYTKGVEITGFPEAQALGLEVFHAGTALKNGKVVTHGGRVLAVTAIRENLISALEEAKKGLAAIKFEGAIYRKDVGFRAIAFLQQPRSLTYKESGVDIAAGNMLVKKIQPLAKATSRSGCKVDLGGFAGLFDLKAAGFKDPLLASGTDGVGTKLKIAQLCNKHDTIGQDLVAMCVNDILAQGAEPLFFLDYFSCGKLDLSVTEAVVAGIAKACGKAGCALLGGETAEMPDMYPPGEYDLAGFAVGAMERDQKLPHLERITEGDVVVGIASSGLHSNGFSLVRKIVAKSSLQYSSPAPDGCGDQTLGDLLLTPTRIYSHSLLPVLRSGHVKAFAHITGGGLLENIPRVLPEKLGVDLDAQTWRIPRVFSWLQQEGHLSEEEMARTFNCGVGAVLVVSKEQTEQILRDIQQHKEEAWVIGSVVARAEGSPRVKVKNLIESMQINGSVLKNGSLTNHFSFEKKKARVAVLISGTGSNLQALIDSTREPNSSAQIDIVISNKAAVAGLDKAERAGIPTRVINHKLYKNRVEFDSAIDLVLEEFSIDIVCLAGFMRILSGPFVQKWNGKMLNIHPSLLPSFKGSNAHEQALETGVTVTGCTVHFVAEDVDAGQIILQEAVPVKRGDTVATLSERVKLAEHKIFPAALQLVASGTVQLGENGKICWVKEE
GAR transformylase/AICAR transformylase (Homo sapiens), sequence (P31939 whole entry, looked up): as the sequence (P31939 whole entry, looked up) above
Thymidylate synthase (Homo sapiens), sequence (P04818 2-313 limits assumed): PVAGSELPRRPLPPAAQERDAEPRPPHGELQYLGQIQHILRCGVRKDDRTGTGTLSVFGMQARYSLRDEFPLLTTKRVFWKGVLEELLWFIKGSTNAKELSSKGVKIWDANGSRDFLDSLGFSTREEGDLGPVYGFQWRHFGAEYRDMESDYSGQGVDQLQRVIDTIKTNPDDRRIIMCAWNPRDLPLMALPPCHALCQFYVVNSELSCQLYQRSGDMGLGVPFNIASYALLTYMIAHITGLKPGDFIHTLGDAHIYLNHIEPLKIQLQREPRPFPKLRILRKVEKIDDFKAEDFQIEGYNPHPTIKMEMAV
T1 sequence (P04818 whole entry, looked up): as the sequence (P04818 whole entry, looked up) above
T1 sequence (P22102 whole entry, looked up): as the sequence (P22102 whole entry, looked up) above
T1 sequence (P31939 whole entry, looked up): as the sequence (P31939 whole entry, looked up) above

In the case of `COc1cc([C@@H]2c3cc4c(cc3[C@@H](O[C@@H]3O[C@@H]5CO[C@@H](C)O[C@H]5[C@H](O)[C@H]3O)[C@H]3COC(=O)[C@H]23)OCO4)cc(OC)c1O` [ETOPOSIDE], the Activity was 0% in experiment [1], 96.81% in experiment [2] and 3.19% in experiment [3].

For the compound `Nc1nc2[nH]c(CC(=O)NCCCCC(=O)N[C@@H](CCC(=O)O)C(=O)O)cc2c(=O)[nH]1`, the IC50 is 0.043 µM in experiment [4], 3810 nM in experiment [5] and 1140 nM in experiment [6].

In the case of `Nc1nc2[nH]c(CC(=O)Nc3ccc(C(=O)N[C@@H](CCC(=O)O)C(=O)O)cc3)cc2c(=O)[nH]1`, the Activity was 68.62% in experiment [7]; 1.3% in experiment [8]; 0% in experiment [10]; 31.38% in experiment [12]; 55.4% in [14]; 7.1% in [15]. The Activity in [16] is reported as 36.2%. Moreover, the IC50 in experiment [4] came out at 7.5 ×10⁻³ microM; in [5], 1130 nM; in experiment [6] it was 977 nM. Besides, the inhibition result in [9] and in experiment [11] was “Active” throughout. This compound gave an inhibition at 0.1 µM in [13] of more than 80%.

`Nc1nc2[nH]cc(CCc3ccc(C(=O)N[C@@H](CCC(=O)O)C(=O)O)cc3)c2c(=O)[nH]1` [PEMETREXED]: the Activity worked out at 10.2% in [17]; 38.05% in experiment [18]; 61.95% in [19]; 21.8% in [20]; 0% in experiment [21]; 1% in [22]. In experiment [23], the Activity came to 67%. For the same compound, the results for the IC50 in experiment [5] and in [6] were 650 nM and 90 nM, respectively.

As for `Nc1nc2[nH]c(CC(=O)NCCC(=O)N[C@@H](CCC(=O)O)C(=O)O)cc2c(=O)[nH]1`, the IC50 in experiment [4] came out at 0.092 µM; in experiment [5], 2380 nM; in experiment [6], 1100 nM.

For the compound `Nc1nc2[nH]c(CC(=O)NCCCCCC(=O)N[C@@H](CCC(=O)O)C(=O)O)cc2c(=O)[nH]1`, the IC50 in [4] was determined as 1.4 ×10⁻⁴ microM; in [5], 1080 nM; in experiment [6], 563 nM. In addition, the inhibition result in experiment [24] and in [28] was “Active” in each case. Also, the inhibition result in experiment [25], in experiment [26] and in experiment [27] was “inactive” in each case.

Regarding `CN(Cc1cnc2nc(N)nc(N)c2n1)c1ccc(C(=O)N[C@@H](CCC(=O)O)C(=O)O)cc1` [METHOTREXATE], the IC50 in experiment [5] was determined as 97 nM; in experiment [6], 22 nM.

Turning to `Nc1nc2[nH]c(CC(=O)NCC(=O)N[C@@H](CCC(=O)O)C(=O)O)cc2c(=O)[nH]1`, the “Ratio IC50” value was found to be 1000 in experiment [29] and 140 in [30]. For the same compound, the Activity in experiment [7] is given as 44.96%; in experiment [8], 0.3%; in [10] it was 2.43%; in [12] it was 52.6%; in experiment [14], 57.9%; in experiment [15], 6.4%. Further, the Activity in experiment [16] is 35.4%. Further, the IC50 in experiment [4] was 7.8 ×10⁻⁵ uM; in experiment [5], 913 nM; in experiment [6], 786 nM. Moreover, the inhibition entry in experiment [24] and in experiment [28] was “Active” in each case. Also, the inhibition result in experiment [25], in experiment [26] and in [27] was “inactive” throughout. Also, the inhibition at 0.1 µM in [13] was more than 90%.

`Nc1nc2ccc(S(=O)(=O)Nc3ccc(C(=O)N[C@@H](CCC(=O)O)C(=O)O)cc3)cc2c(=O)[nH]1`: in experiment [31], the inhibitory constant (Ki) was found to be 8 nM.

As for `Nc1nc2[nH]c(CC(=O)NCCCC(=O)N[C@@H](CCC(=O)O)C(=O)O)cc2c(=O)[nH]1`, the values for the IC50 in experiment [4], in experiment [5] and in experiment [6] were 0.107 µM, 3640 nM and 948 nM, respectively.

As a reminder, the inhibition is the drop in the measured response relative to a control, in per cent. The term Ki denotes the equilibrium dissociation constant of an inhibitor or competing ligand from its target.
